biological target: T1, full-length SHP2 (Homo sapiens, UniProt Q06124); experiment: SHP2 enzymatic assay (fluorescence intensity kinetic assay, DiFMUP hydrolysis); assay type: biochemical; details: 1 nM His6-tagged SHP2(2-527), 1 μM activating peptide, 50 μM DiFMUP; single assay or mean of multiple assays; read-out: Biological Example 1 IC50
T1 construct: 1 nM full-length SHP2 (His6-tagged SHP2(2-527), recombinantly expressed in E. coli and purified in-house); His6; made in house; host or cells: E. coli
T1 sequence (Q06124 2-527): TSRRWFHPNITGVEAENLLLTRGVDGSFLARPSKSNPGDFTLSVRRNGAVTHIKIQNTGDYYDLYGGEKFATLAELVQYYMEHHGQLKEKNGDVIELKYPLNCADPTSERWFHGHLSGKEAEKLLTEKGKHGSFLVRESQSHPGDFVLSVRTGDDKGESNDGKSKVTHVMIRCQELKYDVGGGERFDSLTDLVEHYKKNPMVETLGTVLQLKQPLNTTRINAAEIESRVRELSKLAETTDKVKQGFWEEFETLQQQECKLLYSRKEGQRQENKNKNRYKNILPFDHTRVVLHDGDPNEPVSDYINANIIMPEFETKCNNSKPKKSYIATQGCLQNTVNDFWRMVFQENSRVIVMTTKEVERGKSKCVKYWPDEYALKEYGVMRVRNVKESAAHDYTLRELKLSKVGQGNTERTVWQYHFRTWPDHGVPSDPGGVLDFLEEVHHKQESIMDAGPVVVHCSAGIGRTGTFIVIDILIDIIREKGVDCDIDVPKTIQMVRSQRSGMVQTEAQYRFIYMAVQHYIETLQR
Description: A fluorescence intensity kinetic assay was configured for full-length SHP2 that monitors the amount of 6,8-difluoro-7-hydroxy-4-methylcoumarin (“DiFMU”) formed upon hydrolysis of 6,8-difluoro-4-methylumbelliferyl phosphate (“DiFMUP”) by SHP2. […] Low control wells lacked enzyme. The assays were initiated by the addition of a mixture of SHP2 and the activating peptide, and following a 15 second mix on an orbital shaker, were read in kinetic mode for 15 minutes (30 seconds/cycle) at ambient temperature on a PerkinElmer EnVision microplate reader (kEx=355 nm, kEm=460 nm). Initial velocities (slopes of the tangents at t=0) were estimated from exponential fits to the slightly nonlinear progress curves and then were converted to percent of control (“POC”) using the following equation:
[formula] • Where: xmax Average Uninhibited Controls • Xmin Average Background A 4-parameter logistic model was the fit to the POC data for each compound. From that fit, the IC50 was estimated and is defined as the concentration of compound at which the curve crosses 50 POC.

Going from `N[C@@H]1c2ccccc2CC12CCN(c1ncc([Se]c3ccccc3)nn1)CC2` [Example 40, (S)-1′-(6-(phenylselanyl)-1,2,4-triazin-3-yl)-1,3-dihydrospiro[indene-2,4′-piperidin]-1-amine] to `N[C@@H]1c2ccccc2CC12CCN(c1ncc(Sc3cnc4ncccn34)nn1)CC2` [Example 68, (S)-1′-(6-(imidazo[1,2-a]pyrimidin-3-ylthio)-1,2,4-triazin-3-yl)-1,3-dihydrospiro[indene-2,4′-piperidin]-1-amine], the IC50 rises from 0.008 µM to 0.033 µM (4.1-fold).

Going from `N[C@@H]1c2ccccc2CC12CCN(c1ncc(N3CCc4cnccc43)nn1)CC2` [Example 15, (S)-1′-(6-(2,3-dihydro-1H-pyrrolo[3,2-c]pyridin-1-yl)-1,2,4-triazin-3-yl)-1,3-dihydrospiro[indene-2,4′-piperidin]-1-amine] to `N[C@@H]1c2ccccc2CC12CCN(c1ncc(Oc3cnc4[nH]ccc4c3)nn1)CC2` [Example 72, (S)-1′-(6-((1H-pyrrolo[2,3-b]pyridin-5-yl)oxy)-1,2,4-triazin-3-yl)-1,3-dihydrospiro[indene-2,4′-piperidin]-1-amine], the IC50 rises from 7.95 µM to 16.4 µM (2.1-fold). The first is the more potent here.

`Nc1nccc(Sc2cnc(N3C4CCC3CC3(Cc5ccccc5[C@H]3N)C4)nn2)c1Cl` (stereo partly drawn) [Example 78, (1′S)-8-(6-((2-amino-3-chloropyridin-4-yl)thio)-1,2,4-triazin-3-yl)-1′,3′-dihydro-8-azaspiro[bicyclo[3.2.1]octane-3,2′-inden]-1′-amine] and `C[C@@H]1OCC2(CCN(c3ncc(Sc4ccnc(N)c4F)nn3)CC2)[C@@H]1N` [Example 21, (3S,4S)-8-(6-((2-amino-3-fluoropyridin-4-yl)thio)-1,2,4-triazin-3-yl)-3-methyl-2-oxa-8-azaspiro[4.5]decan-4-amine] are within 1.5-fold of each other in IC50: 15 µM for the first, 11.1 µM for the second.

Work on `C[C@@H]1OCC2(CCN(c3ncc(Sc4ccc(N)nc4C(F)(F)F)nn3)CC2)[C@@H]1N` [Example 56, (3S,4S)-8-(6-((6-amino-2-(trifluoromethyl)pyridin-3-yl)thio)-1,2,4-triazin-3-yl)-3-methyl-2-oxa-8-azaspiro[4.5]decan-4-amine] yielded an IC50 of 1.37 µM.

— patent publication US11634417B2 (Array BioPharma Inc., priority 2019, dated 2023)
